Data set [1] concerns TGF-β/Smad signaling and ECM expression. To be noted: chemical inhibitor of NQO1 or HO-1 added to DMF; cited from earlier work.
For data set [2], the system named is streptozotocin (STZ, 150 mg/kg)-induced diabetic nephropathy mouse model. In words: UUO renal fibrosis and streptozotocin-induced diabetic nephropathy mouse models. To be noted: UUO and STZ (150 mg/kg) mouse models. Format: in vivo. On the procedure:
As a result, it was confirmed that a dose of 25 mg/kg was effective for diabetic nephropathy. When the dose confirmed in the animal model is converted into HED (Human Equivalent Dose), it is calculated as follows. HED=Animal dose in mg/kg×{Animal weight in kg/Human weight in kg}×60 kg=25 mg/kg×0.08×60 kg=120 mg

The subject of data set [3] is rat renal fibroblast cell line (NRK-49F). The settings on record: cited from earlier work.
Data set [4] concerns RMCs and rat glomerular mesangial cells. To be noted: cited from earlier work.
A further data set has as its system AD-293 cells. To be noted: cited from earlier work.
In another data set the test system is NRK-49F and RMC cells. To be noted: cited from earlier work.
The next data set relates to Nrf2. To be noted: cited from earlier work.
Another data set relates to NRK-49F cells. The settings on record: DMF 40 μmol/1, semi-quantitative RT-PCR; cited from earlier work.
The subject of data set [5] is UUO-induced renal fibrosis model. To be noted: cited from earlier work.
For data set [6] the following is noted: cited from earlier work.

Counter-ions that a name gives are not always drawn.

`COC1=CC(=O)c2c(c(COc3ccc([N+](=O)[O-])cc3)c(C)n2C)C1=O` [ES936]: the “reversal of the inhibitory effect of DMF on the TGF-β/Smad signaling and ECM expression” value in data set [1] is “did not reverse”.
On to `COC(=O)/C=C/C(=O)OC` [DMF, Dimethyl fumarate], for which the “dose effective for diabetic nephropathy” value in data set [2] is on record as 25 mg/kg. The “collagen type 1 induced by TGF-β (mRNA and protein)” value in [3] (24 hours of TGF-β treatment) is listed as “dose-dependently inhibit”. For the same molecule, in data set [3], the “TGF-β-mediated expression of PAI-1, a-SMA, and fibronectin mRNA and protein” value is “inhibited the TGF-β-mediated expression of PAI-1, a-SMA, and fibronectin mRNA and protein dose-dependently”. Moreover, the “TGF-β-induced expression of PAI-1 protein” value in data set [4] was “inhibitory effect”. In addition, in the data set on AD-293 cells (AD-293 cells, PAI-1-Luc reporter), the “activity of the PAI-1 promoter induced by TGF-β” value was “inhibited”. In the data set with AD-293 cells (reporter with 9 copies of the Smad3 binding site), the “activity of the (CAGA)9MLP-Luc promoter induced by TGF-β or ALK5” value is reported as “inhibited”. Further, the “Smad3 phosphorylation induced by TGF-β” value in the data set with NRK-49F and RMC cells is “inhibited”. Moreover, in the data set with Nrf2 (NRK-49F cells), the Nrf2 protein expression entry was “sharp increase” and the “nuclear accumulation of Nrf2” value was “induced the nuclear accumulation of Nrf2 dose-dependently”. Further, in the data set on Nrf2 (RMC cells), the “expression of Nrf2 protein” value is listed as “rapidly increased”. For the same molecule, in the data set with Nrf2 (after DMF treatment), the “expression of p62” value is “increased 6 h after the DMF treatment and up to 12 hours thereafter”. In addition, the “expression of NQO1 and HO-1” value in the data set with NRK-49F cells is “increased”. Further, in data set [5], the “expression of collagen type I, fibronectin, PAI-1 and α-SMA related to fibrosis” value is “decreased the expression of collagen type I, fibronectin, PAI-1 and α-SMA”; the “expression of p-Smad3 increased by UUO” value is listed as “decreased the expression of p-Smad3”.
With `COC(=O)/C=C/C(=O)O` [MMF, monomethyl fumarate], the “detection of MMF after administration” value in data set [6] (24 hours after administration of the drug) was “not detected 24 hours after administration”. In addition, the “elimination half-life of MMF” value in [6] (in vivo) is reported as “about 1 hour”. For the same molecule, in data set [6] (repeated administration), the “accumulation of MMF in the body” value is given as “does not accumulate in the body even after repeated administration”.
